Source: PubChem BioAssay (NCI)
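Five compound concentrations were applied to cells in 96-well plates for 48 hours; endpoints were derived by simple linear interpolation of the resulting dose-response curve. At the GI50, growth is halved. TGI is the concentration that stops growth completely.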

How the values were obtained:
Experiment in all cases: DTP human tumour cell line panel, 48 h
UACC-257 melanoma = tested on: UACC-257 melanoma
SNB-75 CNS = tested on: SNB-75 CNS
IGROV1 ovarian = tested on: IGROV1 ovarian
LOX IMVI melanoma = tested on: LOX IMVI melanoma
HCC-2998 colon = tested on: HCC-2998 colon
SN12C renal = tested on: SN12C renal
UO-31 renal = tested on: UO-31 renal
SK-MEL-5 melanoma = tested on: SK-MEL-5 melanoma
TK-10 renal = tested on: TK-10 renal
MDA-MB-231 breast = tested on: MDA-MB-231 breast

In the case of `COC(=O)[C@@H]1CSC(=S)N1C(=O)C[C@H]1CC=CC[C@H]1CC(=O)Sc1ccccc1`, the TGI (UACC-257 melanoma) is reported as 35.9 µM, the TGI (SNB-75 CNS) is reported as 29 µM and the TGI (IGROV1 ovarian) is reported as 39.7 µM. The TGI (LOX IMVI melanoma) was 33.1 µM, the TGI (HCC-2998 colon) was 33.4 µM and the TGI (SN12C renal) was 30.4 µM. The TGI (UO-31 renal) was 26.8 µM.

For `CCCC(O)[C@@H](O)c1ccc2c(c1O)C(=O)c1c(OC)cccc1C2=O` (some centres undefined), the TGI (UACC-257 melanoma) was 68.8 µM, the TGI (SNB-75 CNS) was > 100 µM and the TGI (IGROV1 ovarian) was > 100 µM. For the same molecule, the TGI (LOX IMVI melanoma) was 80.4 µM, the TGI (HCC-2998 colon) was 68.1 µM and the TGI (SK-MEL-5 melanoma) was 31.2 µM. For the same molecule, the TGI (TK-10 renal) was > 100 µM, the TGI (SN12C renal) was > 100 µM and the TGI (UO-31 renal) was 91.2 µM.

In the case of `CC1(Sc2ccccc2)CN(Cc2ccccc2)C1=O` (centres undefined), the TGI (UACC-257 melanoma) is reported as > 100 µM, the TGI (SNB-75 CNS) is reported as > 100 µM and the TGI (IGROV1 ovarian) is reported as > 100 µM. The TGI (LOX IMVI melanoma) was > 100 µM, the TGI (HCC-2998 colon) was > 100 µM and the TGI (SK-MEL-5 melanoma) was > 100 µM. For the same molecule, the TGI (TK-10 renal) was > 100 µM, the TGI (SN12C renal) was > 100 µM and the TGI (UO-31 renal) was > 100 µM.

`CS(=O)(=O)CC1=Nc2nnc(CCCCCCCc3nnc4n3C(=O)C(CS(C)(=O)=O)=N4)n2C1=O` was tested, and the TGI (UACC-257 melanoma) was > 100 µM, the TGI (SNB-75 CNS) was > 100 µM and the TGI (IGROV1 ovarian) was > 100 µM. For the same molecule, the TGI (LOX IMVI melanoma) was > 100 µM, the TGI (HCC-2998 colon) was > 100 µM and the TGI (SK-MEL-5 melanoma) was > 100 µM. The TGI (TK-10 renal) was > 100 µM, the TGI (SN12C renal) was > 100 µM and the TGI (UO-31 renal) was > 100 µM.

`COC(=O)c1[nH]c(=S)[nH]c(=O)c1-c1ccc(Cl)cc1` was tested, and the TGI (UACC-257 melanoma) was > 50 µM, the TGI (SNB-75 CNS) was > 50 µM and the TGI (IGROV1 ovarian) was > 50 µM. For the same molecule, the TGI (LOX IMVI melanoma) was > 50 µM, the TGI (HCC-2998 colon) was > 50 µM and the TGI (SK-MEL-5 melanoma) was > 50 µM. The TGI (TK-10 renal) was > 50 µM, the TGI (SN12C renal) was > 50 µM and the TGI (UO-31 renal) was > 50 µM.

With `O=C1C/C(=C/c2ccc(/C=C3/CC(=O)N(c4cccc(Br)c4)C3=O)cc2)C(=O)N1c1cccc(Br)c1` the TGI (UACC-257 melanoma) was > 100 µM, the TGI (SNB-75 CNS) was 53.1 µM and the TGI (IGROV1 ovarian) was > 100 µM. The TGI (LOX IMVI melanoma) was > 100 µM, the TGI (HCC-2998 colon) was > 100 µM and the TGI (SK-MEL-5 melanoma) was > 100 µM. For the same molecule, the TGI (TK-10 renal) was > 100 µM, the TGI (SN12C renal) was > 100 µM and the TGI (UO-31 renal) was > 100 µM.

`O=C1C(Cl)=C(N/N=c2/[nH][nH]/c(=N/NC3=C(Cl)C(=O)c4ccccc4C3=O)c3ccccc23)C(=O)c2ccccc21` showed a GI50 (UACC-257 melanoma) of 14.9 µM, a TGI (UACC-257 melanoma) of 28.7 µM and a GI50 (SNB-75 CNS) of 1.49 µM. It also gave a TGI (SNB-75 CNS) of 15.3 µM, a GI50 (MDA-MB-231 breast) of 12 µM and a TGI (MDA-MB-231 breast) of 28.2 µM. For the same molecule, the GI50 (IGROV1 ovarian) was 17.7 µM, the TGI (IGROV1 ovarian) was 48.5 µM and the GI50 (LOX IMVI melanoma) was 15.3 µM. It also gave a TGI (LOX IMVI melanoma) of 29.9 µM, a GI50 (SK-MEL-5 melanoma) of 14.1 µM and a TGI (SK-MEL-5 melanoma) of 29.3 µM. The GI50 (SN12C renal) was 15 µM, the TGI (SN12C renal) was 29.5 µM and the GI50 (UO-31 renal) was 12.3 µM. It also gave a TGI (UO-31 renal) of 25.9 µM.

`CC12CCC(=O)C(O1)C1C(=O)c3cc4ccccc4cc3C(=O)C12` (centres undefined) gave a GI50 (UACC-257 melanoma) of 16.2 µM, a TGI (UACC-257 melanoma) of 32.5 µM and a GI50 (SNB-75 CNS) of 29.2 µM. For the same molecule, the TGI (SNB-75 CNS) was > 100 µM, the GI50 (MDA-MB-231 breast) was 14.9 µM and the TGI (MDA-MB-231 breast) was 35.6 µM. The GI50 (IGROV1 ovarian) was 23.9 µM, the TGI (IGROV1 ovarian) was > 100 µM and the GI50 (TK-10 renal) was 16.6 µM. The TGI (TK-10 renal) was 33.6 µM, the GI50 (SN12C renal) was 16.5 µM and the TGI (SN12C renal) was 36.4 µM. For the same molecule, the GI50 (UO-31 renal) was 42.5 µM and the TGI (UO-31 renal) was > 100 µM.

With `C=C1C(=O)O[C@H]2C[C@@H](C)[C@@H]3CC(=O)OC[C@@]3(C)CC12` (some centres undefined) the TGI (SNB-75 CNS) was > 100 µM, the TGI (IGROV1 ovarian) was > 100 µM and the TGI (LOX IMVI melanoma) was 90.5 µM. The TGI (HCC-2998 colon) was 98.5 µM, the TGI (SK-MEL-5 melanoma) was > 100 µM and the TGI (TK-10 renal) was 55.2 µM. The TGI (SN12C renal) was 60.8 µM and the TGI (UO-31 renal) was > 100 µM.

`Cc1ccc2c(c1)C1(C)OC(CC(N)C1O)O2` (centres undefined) was tested, and the TGI (UACC-257 melanoma) was > 100 µM, the TGI (SNB-75 CNS) was > 100 µM and the TGI (IGROV1 ovarian) was > 100 µM. For the same molecule, the TGI (LOX IMVI melanoma) was > 100 µM, the TGI (SK-MEL-5 melanoma) was > 100 µM and the TGI (TK-10 renal) was > 100 µM. For the same molecule, the TGI (SN12C renal) was > 100 µM and the TGI (UO-31 renal) was > 100 µM.

`CC(=O)/C(=C\c1ccco1)C(=O)Nc1ccccc1` was tested, and the TGI (UACC-257 melanoma) was > 100 µM, the TGI (IGROV1 ovarian) was > 100 µM and the TGI (LOX IMVI melanoma) was > 100 µM. For the same molecule, the TGI (HCC-2998 colon) was > 100 µM, the TGI (SK-MEL-5 melanoma) was > 100 µM and the TGI (TK-10 renal) was > 100 µM. The TGI (SN12C renal) was > 100 µM and the TGI (UO-31 renal) was > 100 µM.

In the case of `O=C(O)CS(=O)(=O)C(c1ccccc1)c1ccccc1`, the TGI (UACC-257 melanoma) is reported as > 100 µM, the TGI (SNB-75 CNS) is reported as > 100 µM and the TGI (MDA-MB-231 breast) is reported as > 100 µM. For the same molecule, the TGI (IGROV1 ovarian) was > 100 µM, the TGI (LOX IMVI melanoma) was > 100 µM and the TGI (SK-MEL-5 melanoma) was > 100 µM. The TGI (TK-10 renal) was > 100 µM, the TGI (SN12C renal) was > 100 µM and the TGI (UO-31 renal) was > 100 µM.

`C=C1C(=O)OC2CC3(C)C=CC(=O)C(=C)C3CC12` (centres undefined) was tested, and the TGI (UACC-257 melanoma) was 3.1 µM, the TGI (SNB-75 CNS) was 14.7 µM and the TGI (IGROV1 ovarian) was 5.04 µM. The TGI (LOX IMVI melanoma) was 1.86 µM, the TGI (HCC-2998 colon) was 6.55 µM and the TGI (SK-MEL-5 melanoma) was 3.48 µM. The TGI (TK-10 renal) was 4.79 µM, the TGI (SN12C renal) was 3.46 µM and the TGI (UO-31 renal) was 3.13 µM.

With `COC12C=CC(CC1)c1c(O)ccc(O)c12` (centres undefined) the TGI (UACC-257 melanoma) was > 100 µM, the TGI (SNB-75 CNS) was > 100 µM and the TGI (IGROV1 ovarian) was > 100 µM. The TGI (HCC-2998 colon) was > 100 µM, the TGI (SK-MEL-5 melanoma) was > 100 µM and the TGI (TK-10 renal) was > 67.1 µM. The TGI (SN12C renal) was > 100 µM and the TGI (UO-31 renal) was > 100 µM.

In the case of `CN(C)c1ccc2c(NCCCCCCNc3ccnc4cc(N(C)C)ccc34)ccnc2c1`, the TGI (UACC-257 melanoma) is reported as 49.9 µM, the TGI (HCC-2998 colon) is reported as 70.7 µM and the TGI (SK-MEL-5 melanoma) is reported as > 100 µM. The TGI (TK-10 renal) was 32.2 µM, the TGI (SN12C renal) was > 100 µM and the TGI (UO-31 renal) was > 100 µM.

`CCOC(=O)c1c2c(n(CC(C)C)c1C)-c1nc[nH]c1C(=O)C2=O` gave a GI50 (UACC-257 melanoma) of 18.4 µM, a TGI (UACC-257 melanoma) of 32.3 µM and a GI50 (MDA-MB-231 breast) of 6.85 µM. It also gave a TGI (MDA-MB-231 breast) of 20.1 µM, a GI50 (IGROV1 ovarian) of 18.8 µM and a TGI (IGROV1 ovarian) of 36 µM. It also gave a GI50 (LOX IMVI melanoma) of 7.91 µM, a TGI (LOX IMVI melanoma) of 20.5 µM and a GI50 (SK-MEL-5 melanoma) of 16.2 µM. For the same molecule, the TGI (SK-MEL-5 melanoma) was 30.2 µM, the GI50 (TK-10 renal) was 20.5 µM and the TGI (TK-10 renal) was 36.6 µM. For the same molecule, the GI50 (SN12C renal) was 13.4 µM, the TGI (SN12C renal) was 26.2 µM and the GI50 (UO-31 renal) was 16.3 µM. The TGI (UO-31 renal) was 29.9 µM.
